{"source": "patent US20240325353A1", "about": "“COMPOUND FOR TREATMENT OF COGNITIVE DISORDERS” (Syndesi Therapeutics SA, priority 2021, published 2024)", "origin": "cited, not measured here", "key": {"[1]": {"conditions": "in vivo; cited from earlier work"}, "[2]": {"molecular_target": "T1, synaptic vesicle glycoprotein 2A (Homo sapiens, UniProt Q7L0J3)", "T1 construct": "from tissue; host or cells: brain of living healthy male subjects (PET)", "T1 sequence (Q7L0J3 whole entry)": "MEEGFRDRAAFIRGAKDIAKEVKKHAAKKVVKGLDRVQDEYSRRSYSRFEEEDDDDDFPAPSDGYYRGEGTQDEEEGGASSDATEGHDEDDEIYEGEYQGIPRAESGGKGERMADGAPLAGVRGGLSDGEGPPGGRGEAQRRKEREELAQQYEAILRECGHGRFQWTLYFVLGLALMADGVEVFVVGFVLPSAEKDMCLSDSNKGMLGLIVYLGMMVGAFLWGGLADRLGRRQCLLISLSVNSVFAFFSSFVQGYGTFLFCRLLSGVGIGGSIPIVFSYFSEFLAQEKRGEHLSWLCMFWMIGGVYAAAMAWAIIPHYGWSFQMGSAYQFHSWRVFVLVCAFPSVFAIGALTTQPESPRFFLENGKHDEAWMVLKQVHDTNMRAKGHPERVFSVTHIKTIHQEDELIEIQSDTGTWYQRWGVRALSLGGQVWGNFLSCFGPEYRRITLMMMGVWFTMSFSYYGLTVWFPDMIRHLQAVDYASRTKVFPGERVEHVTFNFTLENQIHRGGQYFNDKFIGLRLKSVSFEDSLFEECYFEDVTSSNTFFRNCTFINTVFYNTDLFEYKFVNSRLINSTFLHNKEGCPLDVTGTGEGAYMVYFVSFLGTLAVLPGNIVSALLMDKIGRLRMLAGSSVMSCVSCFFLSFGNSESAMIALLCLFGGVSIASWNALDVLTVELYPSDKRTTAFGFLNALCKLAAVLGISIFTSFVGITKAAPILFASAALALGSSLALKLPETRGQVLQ", "conditions": "oral 100 mg for 4 days; cited from earlier work"}, "[3]": {"molecular_target": "T2, SV2A (Homo sapiens, UniProt Q7L0J3)", "conditions": "cited from earlier work"}, "[4]": {"molecular_target": "T3, SV2A (Mus musculus, UniProt Q9JIS5)", "T3 construct": "host or cells: brain of audiogenic mice", "T3 sequence (Q9JIS5 whole entry)": "as the sequence (Q7L0J3 whole entry) above, with S62A, T71A, E144D, A154T, G440S, S482A, I572V, M634L counted along it", "conditions": "audiogenic mice; cited from earlier work"}, "[5]": {"conditions": "animals and humans; cited from earlier work"}, "[6]": {"molecular_target": "T2, SV2A", "design": "host or cells: human brain (prediction for patients)", "conditions": "cited from earlier work"}}, "note": "Where two headings read alike, the source gives them in different places.", "data": [{"molecule": "CC[C@H](C(N)=O)N1CCCC1=O", "note": "(single isomer, unassigned) [dextrorotatory enantiomer of levetiracetam]", "values": [{"measurement": "activity in epilepsy", "setting": "[1]", "value": "completely lacks activity"}]}, {"molecule": "CCC[C@@H]1CC(=O)N([C@@H](CC)C(N)=O)C1", "note": "[brivaracetam, (2S)-2-[(4R)-2-oxo-4-propyltetrahydro-1H-pyrrol-1-yl] butanamide]", "values": [{"measurement": "SV2A occupancy at steady state, peak", "setting": "[2]", "value": "82-87%"}, {"measurement": "SV2A occupancy at steady state, trough", "setting": "[2]", "value": "76-82%"}, {"measurement": "affinity of binding to SV2A relative to levetiracetam", "setting": "[3]", "value": "higher affinity than levetiracetam"}]}, {"molecule": "CC[C@@H](C(N)=O)N1CCCC1=O", "note": "[levetiracetam, (S)-(−)-alpha-ethyl-2-oxo-1-pyrrolidine acetamide]", "values": [{"measurement": "SV2A occupancy needed to protect against clonic seizure", "setting": "[4]", "value": "~90", "unit": "%"}, {"measurement": "impact on the cognitive function", "setting": "[5]", "value": "no impact on the cognitive function"}, {"measurement": "predicted SV2A occupancy at Cmin and Cmax", "setting": "[6]; patients receiving a 1 g daily dose", "value": "80 to 93", "unit": "%"}, {"measurement": "predicted SV2A occupancy at Cmin and Cmax", "setting": "[6]; patients receiving a 3 g daily dose", "value": "92 to 98", "unit": "%"}]}]}
